EC50 and Max % data for 27 molecules are collected here from patent US9988400B2 (Genentech, Inc., priority 2013, dated 2018).

The assay has as its target T1, HEK cells stably transfected with tetracycline inducible hNR1 and hNR2A (Homo sapiens, UniProt Q05586+Q12879).
T1 construct: expressed in transfected cells; host or cells: HEK cells, stably transfected, tetracycline/doxycycline inducible
In words: Assay 1: Cell-Based Assay, cytosolic calcium response to positive allosteric modulators (with 30 μM glycine and 300 nM L-glutamate, EC30). The conditions noted are these: for EC50: cytosolic calcium response, with 30 μM glycine and 300 nM L-glutamate (EC30), — = no plateau was reached; for Max %: responses scaled relative to 100 μM L-glutamate maximal response (100%) and 0 μM L-glutamate (0%). The procedure:
Assay 1: Cell-Based Assay
HEK cells stably transfected with tetracycline inducible hNR1 and hNR2A were seeded into clear bottom 384 well poly-D-lysine coated plates (2.5×10^4 cells per well) in Minimum Essential Media (MEM; without L-) including 7.5 μg mL^−1 doxycycline and 500 μM (+)-ketamine. The cells were incubated at 37° C. in 5% CO2 for 24 h. For measurement of changes in cytosolic calcium, the seeding media was removed and the cells incubated at 37° C. for 60 min with 1× Becton Dickinson Calcium Assay Kit reagent in Hanks Balanced Salt Solution (HBSS; w/o magnesium, including 1.8 mM calcium, 0.65 mg ml^−1 probenecid and 10 μM (+)-ketamine, pH 7.15) then allowed to equilibrate to rt for 30 min. Concentration-effect curves to Positive Allosteric Modulators (PAMs) were constructed by adding different concentrations (with 30 μM glycine and 300 nM L-glutamate (EC30)) to different wells in HBSS. Compounds were added after a 10 second baseline read and maximum level of relative fluorescence units (RFU) was measured over a 5 min period. Responses were scaled relative to 100 μM L-glutamate maximal response (100%) and 0 μM L-glutamate (0%). EC50 values are provided for compounds reaching maximal response plateaus, and the max % (EC50 (- -)) only if no plateau was reached.
A four-parameter Hill equation was fitted to individual concentration-effect curves:
[formula] in which Y, S0, Sinf, AC50, n and c were effect, lower-asymptote, upper-asymptote, mid-point location, slope parameter, and concentration respectively.

Each structure is given as a SMILES string.

T1 sequence (Q12879 23-1464, other chains not shown): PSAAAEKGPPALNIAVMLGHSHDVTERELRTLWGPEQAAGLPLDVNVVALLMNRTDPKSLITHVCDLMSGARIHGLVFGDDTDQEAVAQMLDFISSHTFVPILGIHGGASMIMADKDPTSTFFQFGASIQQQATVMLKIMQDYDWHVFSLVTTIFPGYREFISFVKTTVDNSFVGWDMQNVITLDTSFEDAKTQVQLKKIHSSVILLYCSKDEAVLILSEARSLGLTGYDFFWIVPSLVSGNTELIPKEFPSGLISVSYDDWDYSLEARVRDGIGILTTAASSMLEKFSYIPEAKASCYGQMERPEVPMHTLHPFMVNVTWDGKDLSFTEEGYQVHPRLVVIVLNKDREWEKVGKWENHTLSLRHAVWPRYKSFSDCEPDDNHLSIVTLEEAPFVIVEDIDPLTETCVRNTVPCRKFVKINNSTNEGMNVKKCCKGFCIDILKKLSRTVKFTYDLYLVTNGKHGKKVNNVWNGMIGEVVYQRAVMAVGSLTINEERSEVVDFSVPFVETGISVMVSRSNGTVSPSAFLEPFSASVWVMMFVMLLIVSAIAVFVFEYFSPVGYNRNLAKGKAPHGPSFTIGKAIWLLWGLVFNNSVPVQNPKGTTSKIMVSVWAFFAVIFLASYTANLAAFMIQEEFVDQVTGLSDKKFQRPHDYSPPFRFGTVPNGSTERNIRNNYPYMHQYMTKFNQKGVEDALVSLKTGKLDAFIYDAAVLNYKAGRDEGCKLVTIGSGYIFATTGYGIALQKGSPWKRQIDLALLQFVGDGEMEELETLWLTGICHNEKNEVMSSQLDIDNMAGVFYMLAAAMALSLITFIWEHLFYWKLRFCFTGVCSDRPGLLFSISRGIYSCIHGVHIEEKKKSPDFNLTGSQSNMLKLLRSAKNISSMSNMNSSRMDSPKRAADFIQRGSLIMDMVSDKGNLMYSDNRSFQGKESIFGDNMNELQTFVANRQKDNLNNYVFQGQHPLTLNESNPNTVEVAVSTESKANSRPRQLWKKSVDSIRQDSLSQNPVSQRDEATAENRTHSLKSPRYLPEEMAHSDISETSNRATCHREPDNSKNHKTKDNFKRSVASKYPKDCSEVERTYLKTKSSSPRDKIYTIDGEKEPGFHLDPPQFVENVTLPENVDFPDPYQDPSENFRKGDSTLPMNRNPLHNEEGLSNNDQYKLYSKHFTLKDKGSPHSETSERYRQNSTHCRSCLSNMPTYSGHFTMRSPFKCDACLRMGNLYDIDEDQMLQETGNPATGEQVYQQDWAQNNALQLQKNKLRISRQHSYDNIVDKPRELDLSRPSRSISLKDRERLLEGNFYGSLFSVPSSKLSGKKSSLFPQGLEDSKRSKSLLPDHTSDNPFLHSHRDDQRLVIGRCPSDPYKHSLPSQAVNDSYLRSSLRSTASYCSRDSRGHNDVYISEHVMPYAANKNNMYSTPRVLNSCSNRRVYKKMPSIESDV

In general, EC50 refers to the concentration needed to bring the measured effect to its halfway point. For the molecule `Cc1sc2nc(Cn3nc(Cl)cc3C(F)(F)F)cc(=O)n2c1C(=O)NCC(F)(F)F` [compound 66, 7-[[3-chloro-5-(trifluoromethyl)pyrazol-1-yl]methyl]-2-methyl-5-oxo-N-(2,2,2-trifluoroethyl)thiazolo[3,2-a]pyrimidine-3-carboxamide], the EC50 (Table 3) came out at 1.69 µM.

With `CCNC(=O)c1c(C(F)(F)F)sc2nc(CN(C)c3ccc(F)cn3)cc(=O)n12` [compound 230, N-ethyl-7-[[(5-fluoro-2-pyridyl)-methyl-amino]methyl]-5-oxo-2-(trifluoromethyl)thiazolo[3,2-a]pyrimidine-3-carboxamide], the EC50 (Table 3) was 6.86 µM.

As for `CCNC(=O)c1c(C)sc2nc(CN(C)c3ccc(F)cn3)cc(=O)n12` [compound 143, N-ethyl-7-[[(5-fluoro-2-pyridyl)-methyl-amino]methyl]-2-methyl-5-oxo-thiazolo[3,2-a]pyrimidine-3-carboxamide], the EC50 (Table 3) stood at 12 µM.

As for `COc1ccc(C#N)cc1Cc1cc(=O)n2c([C@@H]3C[C@H]3CO)c(C)sc2n1` (relative stereo) [Example 20.10, 3-[[3-[trans-2-(hydroxymethyl)cyclopropyl]-2-methyl-5-oxo-thiazolo[3,2-a]pyrimidin-7-yl]methyl]-4-methoxy-benzonitrile], for the setting “Table 2”, the EC50 is 9.1 µM and the Max % is 127%.

`CCNC(=O)c1c(C)sc2nc(Cc3cccc(C#N)c3)cc(=O)n12` [Example 21.11, 7-(3-cyanobenzyl)-N-ethyl-2-methyl-5-oxo-5H-thiazolo[3,2-a]pyrimidine-3-carboxamide]: where the note is “Table 2”, the Max % amounted to 47%.

Consider `Cc1cc(C)n(Cc2nc3sc(C)c([C@@H]4C[C@H]4CO)n3c(=O)c2F)n1` (relative stereo) [Example 15.18, 7-((3,5-dimethyl-1H-pyrazol-1-yl)methyl)-6-fluoro-3-(trans-2-(hydroxymethyl)cyclopropyl)-2-methyl-5H-thiazolo[3,2-a]pyrimidin-5-one], for which, under “Table 2”, the EC50 amounted to 10.5 µM and the Max % was 143%.

For the molecule `Cc1sc2nc(Cc3cccc(C(F)(F)F)c3F)cc(=O)n2c1C1CC1C#N` (stereo not drawn) [compound 131, 2-[7-[[2-fluoro-3-(trifluoromethyl)phenyl]methyl]-2-methyl-5-oxo-thiazolo[3,2-a]pyrimidin-3-yl]cyclopropanecarbonitrile], where the note is “Table 3”, the EC50 was found to be 0.681 µM.

For `Cc1sc2nc(COc3ccc(F)cn3)cc(=O)n2c1[C@@H]1C[C@H]1CO` (relative stereo) [Example 4.9, 7-[[(5-Fluoropyridin-2-yl)oxy]methyl]-3-[trans-2-(hydroxymethyl)cyclopropyl]-2-methyl-5H-[1,3]thiazolo[3,2-a]pyrimidin-5-one], under “Table 2”, the EC50 is 4.4 µM and the Max % is given as 123%.

Consider `CCN(Cc1cc(=O)n2c(-c3cncc(F)c3)c(C)sc2n1)c1ccc(F)cc1` [Example 5.24, 7-[(N-ethyl-4-fluoro-anilino)methyl]-3-(5-fluoro-3-pyridyl)-2-methyl-thiazolo[3,2-a]pyrimidin-5-one], for which, where the note is “Table 2”, the EC50 turned out to be 0.731 µM and the Max % is listed as 142%.

With `CCNC(=O)c1c(OCC(F)(F)F)sc2nc(Cc3cccc(C(F)(F)F)c3F)cc(=O)n12` [compound 165, N-ethyl-7-[[2-fluoro-3-(trifluoromethyl)phenyl]methyl]-5-oxo-2-(2,2,2-trifluoroethoxy)thiazolo[3,2-a]pyrimidine-3-carboxamide], the EC50 (Table 3) was 1.37 µM.

With `CCNC(=O)c1c(C)sc2nc(Cc3cccc(F)c3F)cc(=O)n12` [Example 21.45, 7-(2,3-difluorobenzyl)-N-ethyl-2-methyl-5-oxo-5H-thiazolo[3,2-a]pyrimidine-3-carboxamide], the Max % (Table 2) was determined as 49.1%.

Take `Cc1sc2nc(COc3ccccc3F)cc(=O)n2c1[C@@H]1C[C@H]1CO` (relative stereo) [Example 4.12, 7-((2-fluorophenoxy)methyl)-3-(trans-2-(hydroxymethyl)cyclopropyl)-2-methyl-5H-thiazolo[3,2-a]pyrimidin-5-one]: for the setting “Table 2”, the 50% effective concentration (EC50) came out at 30.6 µM and the Max % is reported as 127%.

Regarding `CCNC(=O)c1c(C)sc2nc(Cn3nc(C)cc3C(F)(F)F)cc(=O)n12` [compound 27, N-ethyl-2-methyl-7-[[3-methyl-5-(trifluoromethyl)pyrazol-1-yl]methyl]-5-oxo-thiazolo[3,2-a]pyrimidine-3-carboxamide], where the note is “Table 3”, the EC50 came out at 10.6 µM.

Consider `CCNC(=O)c1c(C(C)C)sc2nc(Cc3cccc(C(F)(F)F)c3F)cc(=O)n12` [compound 87, N-ethyl-7-[[2-fluoro-3-(trifluoromethyl)phenyl]methyl]-2-isopropyl-5-oxo-thiazolo[3,2-a]pyrimidine-3-carboxamide], for which, under “Table 3”, the EC50 was determined as 42 µM.

Consider `CCNC(=O)c1csc2nc(Cc3cccc(C#N)c3F)c(F)c(=O)n12` [Example 21.26, 7-(3-cyano-2-fluorobenzyl)-N-ethyl-6-fluoro-5-oxo-5H-thiazolo[3,2-a]pyrimidine-3-carboxamide], for which the Max % (Table 2) is 76.5%.

With `CCN(Cc1cc(=O)n2c(CCCCO)c(C)sc2n1)c1ccc(F)cc1` [Example 13.3, 7-((Ethyl(4-fluorophenyl)amino)methyl)-3-(4-hydroxybutyl)-2-methyl-5H-thiazolo[3,2-a]pyrimidin-5-one], where the note is “Table 2”, the EC50 was 0.783 µM and the Max % came to 137%.

For the molecule `Cc1sc2nc(CN3c4ccc(F)cc4CC3C)cc(=O)n2c1C#N` (stereo not drawn) [Example 7.5, 7-((5-fluoro-2-methylindolin-1-yl)methyl)-2-methyl-5-oxo-5H-thiazolo[3,2-a]pyrimidine-3-carbonitrile], under “Table 2”, the EC50 came out at 2.1 µM and the Max % is 162%.

As for `CCN(Cc1cc(=O)n2c(C(C)(C)O)c(C)sc2n1)c1ccc(F)cc1` [Example 10.5, 7-[(N-ethyl-4-fluoro-anilino)methyl]-3-(1-hydroxy-1-methyl-ethyl)-2-methyl-thiazolo[3,2-a]pyrimidin-5-one], where the note is “Table 2”, the EC50 turned out to be 0.495 µM and the Max % was found to be 158%.

As to `CCNC(=O)c1c(C)sc2nc(Cc3cccc(C#N)n3)cc(=O)n12` [Example 21.22, 7-((6-cyanopyridin-2-yl)methyl)-N-ethyl-2-methyl-5-oxo-5H-thiazolo[3,2-a]pyrimidine-3-carboxamide], the Max % (Table 2) worked out at 60.1%.

On to `Cc1sc2nc(Cc3ccnc(C#N)c3)cc(=O)n2c1[C@@H]1C[C@H]1CO` (relative stereo) [Example 20.12, 4-((3-(trans-2-(hydroxymethyl)cyclopropyl)-2-methyl-5-oxo-5H-thiazolo[3,2-a]pyrimidin-7-yl)methyl)picolinonitrile], for which the Max % (Table 2) is 74%.

For the molecule `CNC(=O)c1c(C(F)(F)F)sc2nc(Cn3nc(C(F)(F)F)cc3C3CC3)cc(=O)n12` [compound 53, 7-[[5-cyclopropyl-3-(trifluoromethyl)pyrazol-1-yl]methyl]-N-methyl-5-oxo-2-(trifluoromethyl)thiazolo[3,2-a]pyrimidine-3-carboxamide], the EC50 (Table 3) stood at 0.635 µM.

For `CNC(=O)c1c(C)sc2nc(Cc3cc(Cl)cc(C#N)c3)cc(=O)n12` [Example 21.51, 7-[(3-chloro-5-cyano-phenyl)methyl]-N,2-dimethyl-5-oxo-thiazolo[3,2-a]pyrimidine-3-carboxamide], the Max % (Table 2) is reported as 75.0%.

Take `Cc1sc2nc(COc3ccc(F)cc3)cc(=O)n2c1C(=O)N1CCC1` [Example 1.3, 3-[(Azetidin-1-yl)carbonyl]-7-(4-fluorophenoxymethyl)-2-methyl-5H-[1,3]thiazolo[3,2-a]pyrimidin-5-one]: for the setting “Table 2”, the Max % was found to be 45%.

Regarding `Cc1sc2nc(Cn3nc(C(F)(F)F)cc3Cl)cc(=O)n2c1Cn1cccn1` [compound 186, 7-[[5-chloro-3-(trifluoromethyl)pyrazol-1-yl]methyl]-2-methyl-3-(pyrazol-1-ylmethyl)thiazolo[3,2-a]pyrimidin-5-one], under “Table 3”, the 50% effective concentration (EC50) was determined as 3.85 µM.

Consider `Cc1sc2nc(Cn3nc(Cl)cc3C(F)(F)F)cc(=O)n2c1-c1cncnc1` [compound 122, 7-[[3-chloro-5-(trifluoromethyl)pyrazol-1-yl]methyl]-2-methyl-3-pyrimidin-5-yl-thiazolo[3,2-a]pyrimidin-5-one], for which the EC50 (Table 3) turned out to be 9.14 µM.

For `CNC(=O)c1c(C)sc2nc(Cc3ccc4c(c3)CC4)cc(=O)n12` [compound 32, 7-(4-bicyclo[4.2.0]octa-1,3,5-trienylmethyl)-N,2-dimethyl-5-oxo-thiazolo[3,2-a]pyrimidine-3-carboxamide], under “Table 3”, the EC50 amounted to 5.95 µM.

Consider `CCc1c(C)sc2nc(CN(CC)c3ccc(F)cc3)cc(=O)n12` [Example 5.40, 3-ethyl-7-((ethyl(4-fluorophenyl)amino)methyl)-2-methyl-5H-thiazolo[3,2-a]pyrimidin-5-one], for which, under “Table 2”, the EC50 stood at 1.9 µM and the Max % came to 149%.
